The values that follow come from patent US8846619B2, “Artificial oxygen transport protein” (The Trustees of the University of Pennsylvania, priority 2009, dated 2014).

The conditions of data set [1]: literature value, cited from earlier work.
For data set [2] the following is noted: literature value, cited from earlier work. The source holds these as a separate data set.
The nature of data set [3]: O2 binding kinetics and oxy-ferrous heme formation/stability (stopped-flow; low-temperature CO/O2 ligand exchange). Particulars: for stabilization of the oxy-ferrous heme: effect of loop configuration; for oxy-ferrous heme yield: −15° C., exposed to CO, then illuminated to exchange ligand for O2; for O2 binding / oxy-ferrous heme formation (in words): reduced (ferrous) heme protein with O2. On the procedure:
(§1) Predominantly mono-exponential binding kinetics of O2 and CO with the ferrous heme B in Construct 6 were followed spectroscopically in rapid stopped-flow mixing over gas concentrations from 2% to 50% saturation at 15° C. using an Olis RSM 1000 spectrometer (Bogart, Ga.) that scans both the alpha band and Soret band absorptions 1,000 times a second, followed by SVD analysis of the kinetic components. The dissociation rate of the CO complex was determined by competition with ferricyanide using a range of ferricyanide concentrations according to the ferric heme trapping method described previously.
Preparations of ferrous heme synthetic proteins in CO saturated 30% ethylene glycol borate buffer at pH 9.0 were stable to ligand exchange on a timescale of several minutes in the dark at −15° C. This allowed spectra such as those shown in FIG. 2 to be prepared by re-equilibration with O2 or O2/CO gas mixtures, followed by photolysis by halogen lamp illumination for several seconds to initiate rapid O2 binding, as described previously.
In fact, none of the artificial hemes proteins examined above were able to bind this gas stably at room temperature. […] Constructs 2, 3, 4 and 5 all include the glutamate-based helical strain, which weakens the histidine ligation and allows competition from other ligands. By first exposing these heme proteins to CO and then illuminating at a low temperature to initiate ligand exchange for O2, as was done previously with cytochrome oxidase, each formed an oxy-ferrous heme at near 100% yield at −15° C. The probable reason for room temperature instability was the access of water and protons to the heme-binding site, which facilitates electron transfer from ferrous heme to oxygen. This is clear from mutant studies of globins and the relative stability of the oxy-ferrous heme in chemical systems in water-free solvents.

A short description of data set [4]: Hydrogen isotope (H/D) exchange protection by NMR. The format is physicochemical. Particulars: pH 7 and 25° C. The source says: To engineer water exclusion, the potentially culpable protein motion was constrained. […] Indeed, Construct 2 could be modified to introduce large-scale syn-anti flipping. To constrain motion, the loops were reconfigured to link the helices across the most mobile interface. This also allowed the loops to be linked into a monomeric “candelabra” structure, further constraining motion (Construct 6 in FIG. 1). NMR confirmed the water-restricting effects of loop reconfiguration and monomerization. Hydrogen isotope (H/D) analysis of hydrogen exchange protection factors of Constructs 4 and 6 at pH 7 and 25° C.

Data set [5] is described as follows: Heme binding to the constructs. Particulars: two-heme variants, read-out: heme binding affinities.
Data set [6] is described as follows: Potentiometric titration (oxidation-reduction midpoint potential). The class given is physicochemical.
Data set [7] can be described thus: CO binding and release kinetics (stopped-flow mixing, flash photolysis, ferricyanide competition). As to conditions: stopped-flow with CO. On the procedure:
as §1
CO rebinding after photolysis by a frequency-doubled YAG laser at 532 nm, with a ˜1-ns pulse width (FIG. 3C), was multi-exponential, a characteristic signature of human neuroglobins. Detailed analysis of time-resolved spectra in the flash experiments was consistent with a rapid exponential phase due to a change in pentacoordinate heme conformation (FIG. 3B), similar to that reported for myoglobin [46]. […]
Saturation of the observed CO binding rate allowed estimates of the opening and closing rates. […] Table 1 presents the kinetic constants (also shown in FIG. 3A) and equilibrium binding constants that have been determined for Construct 6 and contrasts them with several natural oxygen-binding proteins. […]

The conditions of data set [8]: heme B, cited from earlier work.
The conditions of data set [9]: literature value; cited from earlier work.
Where [10] appears, read: not in parentheses, read-out: KdCO.
The mark [11] stands for this setting: not in parentheses, read-out: KdO2.

Substitutions are numbered along the chain they refer to. Read-outs that look alike come from different tables or passages of the source. Ends that are not written are not given here.

Consider Human haemoglobin, for which, in [1], the kCO off was 0.009 s⁻¹. Further, in data set [1] (not in parentheses), the kCO on was 2.2e+06 M⁻¹ s⁻¹. Besides, the Kd was 4 nM in [1] (setting [10]) and 770 nM in [2] (setting [11]). Besides, the kO2 off in [2] was 15 s⁻¹. The KdO2/KdCO in data set [2] (not in parentheses) was 190. In addition, in data set [2] (not in parentheses), the kO2 on was 1.9e+07 M⁻¹ s⁻¹.
Take “Construct 5: cystine derivative of SEQ ID NO:9 (CGGGEIWKQHEDALQKFEDALNQFEELKQL; also: cystine derivative)”: in data set [3], the “stabilization of the oxy-ferrous heme” value was “not to be stabilized” and the oxy-ferrous heme yield is approximately 100%.
Regarding Myoglobin, the kCO off in data set [1] was 0.019 s⁻¹. The kCO on in data set [1] (not in parentheses) was 500000 M⁻¹ s⁻¹. The Kd in data set [1] (setting [10]) was 37 nM. Besides, the kO2 off in data set [2] is 12 s⁻¹. In data set [2] (not in parentheses), the KdO2/KdCO is recorded as 23 and the kO2 on was 1.4e+07 M⁻¹ s⁻¹. Besides, the Kd in data set [2] (setting [11]) was 860 nM.
In turn, “Construct 4: cystine derivative of SEQ ID NO:8 (CGGGEIWKQHEEALKKFEEALKQFEELKKL; also: cystine derivative)” showed an oxy-ferrous heme yield in data set [3] of approximately 100%. Further, the “time to complete water-mediated proton exchange” value in data set [4] is on record as not above 15 min.
In [3], “Construct 3: cystine derivative of SEQ ID NO:7 (CGGGEIWKLHEEFLKKFEELLKLHEERLKKL; also: cystine derivative)” yielded an oxy-ferrous heme yield of approximately 100%.
Take “CGGGEIWKQFEEALKKLFAFHFILPFIIMAIAMVFLLFLFGEGL [Construct 14, AP6 with histidines at positions 10 and 35 mutated to phenylalanine]”: the Kd in data set [5] (tighter site) fell in the range of 200 to 500 nM; in data set [5] (weaker site), 1000 to 3000 nM.
Turning to Ascaris haemoglobin, the kCO off in data set [1] is 0.018 s⁻¹. Moreover, the kCO on in data set [1] (not in parentheses) was 200000 M⁻¹ s⁻¹. In data set [1] (setting [10]), the Kd was 90 nM. Also, the kO2 off in [2] is 0.004 s⁻¹. In addition, in data set [2] (not in parentheses), the KdO2/KdCO is given as 0.03 and the kO2 on was 1.5e+06 M⁻¹ s⁻¹. The Kd in [2] (setting [11]) was 3 nM.
In the case of “Construct 2: cystine derivative of SEQ ID NO:6 (CGGGELWKLHEELLKKFEELLKLHEERLKKL; also: cystine derivative)”, in data set [3], the “O2 binding / oxy-ferrous heme formation (in words)” value was “proceeded directly and rapidly to the oxidized form”; the oxy-ferrous heme yield is recorded as approximately 100%.
Take “CGGGEIWKQHEEALKKLFAFFFILPFIIMAIAMVFLLFLFGEGL [Construct 13]”: the Kd in data set [5] (tighter site) lay in the range of 50 to 200 nM; in data set [5] (weaker site), 1000 to 4000 nM. Further, in data set [3], the “O2 binding / oxy-ferrous heme formation (in words)” value is “able to bind O2”.
As for Micro-peroxidase, the kCO off in data set [1] is 0.01 s⁻¹. The kCO on in [1] (not in parentheses) was 2e+07 M⁻¹ s⁻¹. Besides, the Kd in data set [1] (setting [10]) was 0.5 nM.
On to “CGGGEIWKQFEEALKKLFAFFFILPFIIMAIAMVHLLFLFGEGL [Construct 15, AP6 with histidines at positions 10 and 21 mutated to phenylalanine]”, for which the Kd stood at 100 nM in data set [5] (tighter site) and 4500 nM in data set [5] (weaker site).

B1: Construct 7: SEQ ID NO:11; single chain four-helix bundle peptide (protein)
chain: GMTPEQIWKQHEDALQKFEDALNQFEELKQLGGSGSGSGGEIWKQHEDALQKFEDALNQFEELKQLGGSGGSGGSGGEIWKQHEDALQKFEDALNQFEELKQLGGSGSGSGGEIWKQHEDALQKFEDALNQFEELKQL
Consider B1, for which the “O2 binding / oxy-ferrous heme formation (in words)” value in [3] is listed as “retained the O2 binding functionality of Construct 6”.

B2: Construct 10: SEQ ID NO:14; single chain four-helix bundle with CXXCH insert, covalently bound heme C (protein)
chain: B1 chain with W43C, Q45C
modifications: covalently bound heme C
Regarding B2, in data set [3], the “O2 binding / oxy-ferrous heme formation (in words)” value was “bound molecular oxygen”. Moreover, the “Em (midpoint potential)” value in data set [6] (covalently bound c-type heme, pH 9) is recorded as −232 mV.

B3: Construct 6: cystine derivative of SEQ ID NO:1; four-helix bundle oxygen transport protein (protein)
chain: GEIWKQHEDALQKFEEALNQFEDLKQLGGSGCGSGGEIWKQHEDALQKFEEALNQFEDLKQL
modifications: cystine derivative
notes: four-helix bundle oxygen transport protein
As for B3, in [7], the “half time of carboxy-ferrous heme formation” value was 400 ms and the “stability of carboxy-ferrous heme species” value is listed as “indefinitely stable”. Also, in data set [3], the “O2 on-rate compared with human neuroglobin” value was approximately 100 times slower, the “net discrimination favoring O2 binding over CO binding” value is “tenfold”, the “stabilization of the oxy-ferrous heme” value is “stabilized by looping together helices not linked by heme” and the “O2 binding / oxy-ferrous heme formation (in words)” value is “transformation of the reduced heme to the oxy-ferrous state”. Also, the “persistence of oxy-ferrous heme A before electron transfer” value in data set [3] (heme A) is reported as “about half a minute”. In addition, the “duration of stability of the oxy-ferrous state” value in data set [3] (heme B, before electron transfer from ferrous heme to O2) is reported as “tens of seconds”. Further, the “oxidation-reduction midpoint potential at pH 8 (Em8)” value in [6] (bound heme A, pH 8, versus normal hydrogen electrode (NHE)) is given as −100 mV. Also, the “Em8 of bound heme A more positive than heme B” value in [6] (heme A versus heme B) is on record as “about 200 mV”. In addition, in data set [8] (first heme, read-out: dissociation constant (Kd) for binding of the first heme), the Kd is less than 1 nM. Also, in [8] (second heme, read-out: dissociation constant (Kd) for binding of the second heme), the Kd was 50 nM. For the same molecule, the “timescale of exchange of core residue backbone amides” value in data set [4] was “several hours”.

B4: Neuroglobin (protein, UniProt Q9NPG2 1-151, looked up)
Neuroglobin: MERPEPELIRQSWRAVSRSPLEHGTVLFARLFALEPDLLPLFQYNCRQFSSPEDCLSSPEFLDHIRKVMLVIDAAVTNVEDLSSLEEYLASLGRKHRAVGVKLSSFSTVGESLLYMLEKCLGPAFTPATRAAWSQLYGAVVQAMSRGWDGE
Take B4: the kCO off in data set [1] is 0.014 s⁻¹. Moreover, in data set [1] (in parentheses: apparent), the “kCO on (apparent)” value is on record as “(0.15) μM^−1s^−1”. In addition, the Kd is 93 nM in data set [1] (in parentheses: apparent, read-out: KdCO (apparent)); 0.21 nM in [1] (setting [10]); 1400 nM in [2] (in parentheses: apparent, read-out: KdO2 (apparent)); 3.2 nM in data set [2] (setting [11]). The kCO on in data set [1] (not in parentheses) is 6.5e+07 M⁻¹ s⁻¹. The kHis off in [9] was 4.5 s⁻¹. For the same molecule, the kHis on in data set [9] is listed as 2,000 s^−1. Moreover, the kO2 off in [2] is 0.8 s⁻¹. Moreover, the “KdO2/KdCO (apparent)” value in [2] (in parentheses: apparent) is “(15)”. The “kO2 on (apparent)” value in data set [2] (in parentheses: apparent) is “(0.56) μM^−1s^−1”. The kO2 on in [2] (not in parentheses) is 2.5e+08 M⁻¹ s⁻¹.
